Experimental data: ChEMBL document CHEMBL5030563, “Structure-Based Design of Dual-Acting Compounds Targeting Adenosine A2A Receptor and Histone Deacetylase as Novel Tumor Immunotherapeutic Agents” (J Med Chem, 2021)

How the values were obtained:
[1] = AUC (0 to […]) in ICR mouse at 20 mg/kg, ip up to 24 hrs by LC-MS/MS analysis; type: ADME, organism-based; parameters: route intraperitoneal, dose 20 mg/kg, time <=24; conditions: in vivo
[2] = Initial plasma concentration in ICR mouse at 5 mg/kg, iv up to 24 hrs by LC-MS/MS analysis; type: ADME, organism-based
[3] = AUC (0 to […]) in ICR mouse at 5 mg/kg, iv up to 24 hrs by LC-MS/MS analysis; type: ADME, organism-based; parameters: route intravenous, dose 5 mg/kg, time <=24; conditions: in vivo
Histone deacetylase 2 = Histone deacetylase 2 (Homo sapiens, UniProt Q92769); test: Inhibition of HDAC2 (unknown origin) assessed as release of 7-amino-4-methylcoumarin incubated in room temperature for 15 min measured by Spectra max microtitre plate reader
[4] = Tmax in ICR mouse at 20 mg/kg, po by LC-MS/MS analysis; type: ADME, organism-based; conditions: in vivo
[5] = biological target: T1, Polyamine deacetylase HDAC10 (Homo sapiens, UniProt Q969S8); test: Inhibition of HDAC10 (unknown origin) assessed as release of 7-amino-4-methylcoumarin incubated in room temperature for 15 min measured by Spectra max microtitre plate reader
T1 sequence (Q969S8 whole entry): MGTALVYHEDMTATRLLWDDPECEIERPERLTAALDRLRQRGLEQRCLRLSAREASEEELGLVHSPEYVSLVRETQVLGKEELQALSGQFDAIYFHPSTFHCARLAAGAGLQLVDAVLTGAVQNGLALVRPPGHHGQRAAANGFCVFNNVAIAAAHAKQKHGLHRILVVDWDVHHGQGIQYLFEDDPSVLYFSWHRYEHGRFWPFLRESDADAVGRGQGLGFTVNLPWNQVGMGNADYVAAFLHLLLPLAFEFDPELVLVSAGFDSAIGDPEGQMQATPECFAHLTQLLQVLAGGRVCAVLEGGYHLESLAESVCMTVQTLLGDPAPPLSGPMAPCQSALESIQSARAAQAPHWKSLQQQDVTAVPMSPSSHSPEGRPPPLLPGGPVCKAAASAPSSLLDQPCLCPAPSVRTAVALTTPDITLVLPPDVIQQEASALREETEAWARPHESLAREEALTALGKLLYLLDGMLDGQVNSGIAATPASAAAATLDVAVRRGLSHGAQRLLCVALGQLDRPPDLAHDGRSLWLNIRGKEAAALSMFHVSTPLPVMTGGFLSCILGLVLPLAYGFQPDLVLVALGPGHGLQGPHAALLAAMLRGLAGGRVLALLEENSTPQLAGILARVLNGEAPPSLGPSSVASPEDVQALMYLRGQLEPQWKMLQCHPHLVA

[6] = Half life in ICR mouse at 5 mg/kg, iv up to 24 hrs by LC-MS/MS analysis; type: ADME, organism-based; conditions: in vivo
Histone deacetylase 11 = biological target: T2, Histone deacetylase 11 (Homo sapiens, UniProt Q96DB2); test: Inhibition of HDAC11 (unknown origin) assessed as release of 7-amino-4-methylcoumarin incubated in room temperature for 15 min measured by Spectra max microtitre plate reader
T2 sequence (Q96DB2 whole entry): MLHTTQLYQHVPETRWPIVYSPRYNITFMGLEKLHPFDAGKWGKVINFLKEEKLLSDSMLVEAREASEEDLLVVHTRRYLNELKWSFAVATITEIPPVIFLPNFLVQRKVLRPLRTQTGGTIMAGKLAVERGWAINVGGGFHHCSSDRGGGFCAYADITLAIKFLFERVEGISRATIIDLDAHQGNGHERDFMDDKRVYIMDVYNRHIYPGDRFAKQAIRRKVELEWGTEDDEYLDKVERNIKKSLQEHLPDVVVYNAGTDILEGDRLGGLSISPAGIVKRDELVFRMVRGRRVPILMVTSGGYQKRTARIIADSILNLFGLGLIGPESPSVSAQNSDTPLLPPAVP

MC38 = test: Inhibition of HDAC in mouse MC38 cells assessed as increase in acetyl-histone H4 measured after 24 hrs by Western blot analysis; type: cell-based
[7] = Tmax in ICR mouse at 20 mg/kg, ip up to 24 hrs by LC-MS/MS analysis; type: ADME, organism-based; conditions: in vivo
Histone deacetylase 4 = Histone deacetylase 4 (Homo sapiens, UniProt P56524); test: Inhibition of HDAC4 (unknown origin) assessed as release of 7-amino-4-methylcoumarin incubated in room temperature for 15 min measured by Spectra max microtitre plate reader
Histone deacetylase 8 = biological target: T3, Histone deacetylase 8 (Homo sapiens, UniProt Q9BY41); test: Inhibition of HDAC8 (unknown origin) assessed as release of 7-amino-4-methylcoumarin incubated in room temperature for 15 min measured by Spectra max microtitre plate reader
T3 sequence (Q9BY41 whole entry): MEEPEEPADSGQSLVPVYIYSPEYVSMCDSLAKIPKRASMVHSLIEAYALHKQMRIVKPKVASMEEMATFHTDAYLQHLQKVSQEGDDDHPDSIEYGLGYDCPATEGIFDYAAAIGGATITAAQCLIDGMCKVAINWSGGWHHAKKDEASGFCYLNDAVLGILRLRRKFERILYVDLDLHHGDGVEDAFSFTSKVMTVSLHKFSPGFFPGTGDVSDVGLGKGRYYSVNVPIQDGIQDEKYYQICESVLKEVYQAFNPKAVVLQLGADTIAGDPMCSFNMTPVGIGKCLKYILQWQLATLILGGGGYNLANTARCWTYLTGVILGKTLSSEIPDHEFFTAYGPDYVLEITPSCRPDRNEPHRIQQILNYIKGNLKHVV

Adenosine receptor A1 = biological target: T4, Adenosine receptor A1 (Homo sapiens, UniProt P30542); test: Displacement of [3H]DPCPX from human adenosine A1 receptor membrane (unknown origin) measured after 60 mins by scintillation counting analysis; type: cell membranes
T4 sequence (P30542 whole entry): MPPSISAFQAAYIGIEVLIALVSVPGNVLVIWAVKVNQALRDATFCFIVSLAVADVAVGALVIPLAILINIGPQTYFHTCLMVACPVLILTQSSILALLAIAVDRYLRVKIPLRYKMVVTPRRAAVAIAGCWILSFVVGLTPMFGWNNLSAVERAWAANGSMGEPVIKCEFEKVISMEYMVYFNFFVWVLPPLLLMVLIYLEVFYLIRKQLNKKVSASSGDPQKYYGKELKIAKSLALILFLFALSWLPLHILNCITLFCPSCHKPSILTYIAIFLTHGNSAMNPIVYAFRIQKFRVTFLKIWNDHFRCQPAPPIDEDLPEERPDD

Adenosine receptor A2a = Adenosine receptor A2a (Homo sapiens, UniProt P29274); test: Displacement of [3H]SCH58261 from adenosine A2A receptor membrane (unknown origin) measured after 60 mins by scintillation counting analysis; type: cell membranes
Histone deacetylase 3 = Histone deacetylase 3 (Homo sapiens, UniProt O15379); test: Inhibition of HDAC3 (unknown origin) assessed as release of 7-amino-4-methylcoumarin incubated in room temperature for 15 min measured by Spectra max microtitre plate reader
[8] = AUC (0 to t) in ICR mouse at 20 mg/kg, po by LC-MS/MS analysis; type: ADME, organism-based; parameters: dose 20 mg/kg; conditions: in vivo
[9] = MRT in ICR mouse at 20 mg/kg, po by LC-MS/MS analysis; type: ADME, organism-based; conditions: in vivo
CT26 = test: Antiproliferative activity against mouse CT26 cells measured after 72 hrs by CCK8 assay; type: functional; conditions: Mus musculus, CT26
[10] = Bioavailability in ICR mouse at 20 mg/kg up to 24 hrs by LC-MS/MS analysis; type: ADME, organism-based; conditions: in vivo

Histone deacetylase 2, sequence (Q92769 whole entry): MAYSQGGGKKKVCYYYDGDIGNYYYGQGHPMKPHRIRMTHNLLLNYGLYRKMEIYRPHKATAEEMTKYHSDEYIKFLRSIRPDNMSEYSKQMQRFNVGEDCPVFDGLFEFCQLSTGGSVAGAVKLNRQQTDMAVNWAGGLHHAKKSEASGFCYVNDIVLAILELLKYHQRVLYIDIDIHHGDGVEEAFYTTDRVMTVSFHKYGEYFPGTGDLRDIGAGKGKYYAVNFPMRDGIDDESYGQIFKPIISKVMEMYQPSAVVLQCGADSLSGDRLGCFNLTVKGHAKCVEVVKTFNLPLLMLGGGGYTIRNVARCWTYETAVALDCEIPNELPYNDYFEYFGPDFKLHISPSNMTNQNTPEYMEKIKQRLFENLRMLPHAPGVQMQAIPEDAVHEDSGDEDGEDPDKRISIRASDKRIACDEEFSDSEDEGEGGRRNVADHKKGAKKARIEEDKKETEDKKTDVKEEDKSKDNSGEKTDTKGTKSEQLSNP
Adenosine receptor A2a, sequence (P29274 whole entry): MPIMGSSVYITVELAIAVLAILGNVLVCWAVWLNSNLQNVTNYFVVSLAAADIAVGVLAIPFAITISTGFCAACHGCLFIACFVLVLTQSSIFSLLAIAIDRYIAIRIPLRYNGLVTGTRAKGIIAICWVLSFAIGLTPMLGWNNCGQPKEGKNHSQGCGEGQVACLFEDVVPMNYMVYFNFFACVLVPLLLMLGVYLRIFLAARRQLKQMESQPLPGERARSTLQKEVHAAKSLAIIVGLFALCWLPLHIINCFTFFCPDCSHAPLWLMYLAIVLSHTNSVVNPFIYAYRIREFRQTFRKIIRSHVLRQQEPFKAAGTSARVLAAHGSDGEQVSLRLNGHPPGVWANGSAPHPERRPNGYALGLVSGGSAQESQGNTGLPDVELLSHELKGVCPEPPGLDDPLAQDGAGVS
Histone deacetylase 3, sequence (O15379 whole entry): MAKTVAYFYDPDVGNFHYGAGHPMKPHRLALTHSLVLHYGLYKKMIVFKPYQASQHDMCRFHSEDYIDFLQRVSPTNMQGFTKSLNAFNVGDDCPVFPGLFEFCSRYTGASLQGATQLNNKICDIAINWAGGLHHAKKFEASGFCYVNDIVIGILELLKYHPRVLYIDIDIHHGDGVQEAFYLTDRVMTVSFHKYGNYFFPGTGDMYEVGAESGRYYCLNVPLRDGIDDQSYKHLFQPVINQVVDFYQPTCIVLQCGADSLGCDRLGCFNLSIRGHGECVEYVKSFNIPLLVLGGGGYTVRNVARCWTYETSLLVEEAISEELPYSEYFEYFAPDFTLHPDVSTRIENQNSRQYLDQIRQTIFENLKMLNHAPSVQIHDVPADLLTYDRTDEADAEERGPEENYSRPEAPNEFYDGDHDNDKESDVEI
Histone deacetylase 4, sequence (P56524 whole entry): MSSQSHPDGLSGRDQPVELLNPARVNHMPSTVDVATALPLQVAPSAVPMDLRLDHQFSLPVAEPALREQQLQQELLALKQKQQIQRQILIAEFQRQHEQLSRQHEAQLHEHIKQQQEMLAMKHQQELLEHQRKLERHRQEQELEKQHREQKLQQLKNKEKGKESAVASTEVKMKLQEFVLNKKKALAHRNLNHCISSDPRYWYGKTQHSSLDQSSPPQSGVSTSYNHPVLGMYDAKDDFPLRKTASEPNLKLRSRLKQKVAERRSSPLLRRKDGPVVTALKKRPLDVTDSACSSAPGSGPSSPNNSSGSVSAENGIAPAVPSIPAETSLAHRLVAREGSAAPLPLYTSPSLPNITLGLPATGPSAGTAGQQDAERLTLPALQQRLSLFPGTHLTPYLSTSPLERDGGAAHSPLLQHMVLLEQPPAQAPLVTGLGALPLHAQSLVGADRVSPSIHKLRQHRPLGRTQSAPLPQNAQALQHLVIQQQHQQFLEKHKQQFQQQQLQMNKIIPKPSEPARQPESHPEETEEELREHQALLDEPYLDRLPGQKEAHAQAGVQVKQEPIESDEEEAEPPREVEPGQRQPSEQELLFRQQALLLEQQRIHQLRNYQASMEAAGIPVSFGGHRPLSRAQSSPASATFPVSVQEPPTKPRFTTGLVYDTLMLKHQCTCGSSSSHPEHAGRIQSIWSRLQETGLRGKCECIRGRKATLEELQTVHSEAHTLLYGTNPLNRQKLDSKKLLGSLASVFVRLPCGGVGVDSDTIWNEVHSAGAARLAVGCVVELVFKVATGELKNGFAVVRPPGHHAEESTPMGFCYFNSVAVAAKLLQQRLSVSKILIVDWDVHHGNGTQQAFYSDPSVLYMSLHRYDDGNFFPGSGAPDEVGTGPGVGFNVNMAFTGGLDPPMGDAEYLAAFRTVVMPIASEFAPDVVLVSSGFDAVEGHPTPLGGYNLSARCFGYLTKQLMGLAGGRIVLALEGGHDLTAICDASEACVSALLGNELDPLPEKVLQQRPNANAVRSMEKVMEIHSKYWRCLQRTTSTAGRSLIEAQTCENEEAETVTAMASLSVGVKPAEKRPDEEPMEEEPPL

Which AUC(0-t) [1] does the source give for Nc1ccccc1NC(=O)c1ccc(CCn2ncc3c2nc(N)n2nc(-c4ccco4)nc32)cc1 here?
The AUC(0-t) was 6540 ng·h/mL.

And the C0 at 24 h [2]?
Its C0 at 24 h is 4580 ng/mL.

And the AUC(0-t) [3]?
The AUC(0-t) was 1460 ng·h/mL.

And the IC50 (Histone deacetylase 2)?
Its IC50 is 179 nM.

And the Tmax [4]?
The Tmax was 15 min.

And the IC50 [5]?
Its IC50 is 632 nM.

What about the half-life [6] of the same compound?
The half-life was 17.1 min.

What about the IC50 (Histone deacetylase 11) of the same compound?
The IC50 was over 10000 nM.

What about the Activity (MC38) of the same compound?
Its Activity is “Dose-Dependent Effect”.

What about the Tmax [7] of the same compound?
Its Tmax is 25 min.

And the IC50 (Histone deacetylase 4)?
Its IC50 is over 10000 nM.

And the IC50 (Histone deacetylase 8)?
The IC50 was over 10000 nM.

What about the Ki (Adenosine receptor A1) of the same compound?
Its Ki is 71.2 nM.

And the Ki (Adenosine receptor A2a)?
The Ki was 2.2 nM.

What about the IC50 (Histone deacetylase 3) of the same compound?
Its IC50 is 449 nM.

What about the AUC(0-t) [8] of the same compound?
Its AUC(0-t) is 1770 ng·h/mL.

And the MRT [9]?
The MRT was 84.6 min.

And the GI50 (CT26)?
The GI50 was 6100 nM.

What about the bioavailability [10] of the same compound?
Its bioavailability is 112%.
